As usually defined, the solubility (kinetic) is the concentration staying in solution when a stock, usually in DMSO, is diluted into the medium. As usually defined, the IC50 is the midpoint of a concentration-inhibition curve. A higher IC50 goes with weaker potency. A word on the efflux ratio: it is a quotient of directional permeabilities that is used to spot active efflux.

The source of these data is patent publication US20240116922A1, “IMIDAZO[1,2-A]PYRIDINE DERIVATIVES AS IRAK4 INHIBITORS AND THEIR USE IN THE TREATMENT OF DISEASE” (BIOGEN MA INC., priority 2020, published 2024).

Series [1] can be described thus: Kinetic solubility assay (CLND), pH 6.8. The series is classed as physicochemical. The note with it: aqueous buffer, kinetic from dmso stock; potassium phosphate buffer pH 6.8, 2% DMSO, 24 hours at ambient temperature.
Series [2] can be described thus: Kpuu assay (in vivo brain-to-plasma unbound partition). The note with it: brain (unbound) versus plasma (unbound); intravenous infusion 4 to 24 h; unbound brain/plasma ratio; read-out: Brain Kpu, u.
Series [3] deals with IRAK4 (Homo sapiens (Human), UniProt Q9NWZ3). In words: IRAK4 MSD biochemical assay (2-hour 1 mM ATP). The note with it: 0.1 nM IRAK4, 1 mM ATP, 2 hour at room temperature.
Chain of IRAK4 (Q9NWZ3 whole entry): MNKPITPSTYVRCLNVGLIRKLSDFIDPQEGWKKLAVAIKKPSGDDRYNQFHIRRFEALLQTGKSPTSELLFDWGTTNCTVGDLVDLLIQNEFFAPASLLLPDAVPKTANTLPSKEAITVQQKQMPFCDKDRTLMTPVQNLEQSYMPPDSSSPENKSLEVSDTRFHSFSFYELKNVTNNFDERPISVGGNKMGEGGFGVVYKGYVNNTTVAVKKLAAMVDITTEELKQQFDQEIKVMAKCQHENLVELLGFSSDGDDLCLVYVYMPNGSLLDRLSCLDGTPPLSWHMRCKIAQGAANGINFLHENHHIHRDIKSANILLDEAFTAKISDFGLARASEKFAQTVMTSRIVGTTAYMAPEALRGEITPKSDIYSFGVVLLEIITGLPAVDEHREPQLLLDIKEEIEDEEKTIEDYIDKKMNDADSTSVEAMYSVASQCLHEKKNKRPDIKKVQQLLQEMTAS
Method: The 2-hour 1 mM ATP Biochemical Assay employed a MesoScale Detection (MSD) format.
The activity was quenched with 11 μl of 70 mM EDTA, pH 8.
To detect the phosphorylated biotinylated peptide substrate, 30 μl of the quenched reaction mixture was added to equivalent wells of a 384 well streptavidin coated MesoScale plate (Meso Scale Discovery #L21SA-1). After a 1 hour incubation of the plate for 1 hour at room temperature with gentle mixing, the plate wells were washed 3 times with 50 mM Tris, pH 7.5, 150 mM NaCl, 0.02% Tween-20.
A 25 μl volume of 1:500 anti-P-Threonine Rabbit polyclonal Antibody plus 1:500 Goat-anti-Rabbit Sulfo Tag Antibody (Meso Scale Discovery R32AB-1) in 50 mM Tris, pH 7.5, 150 mM NaCl, 0.02% Tween-20 plus 2% BSA was then added to each well. After a 1-hour incubation of the plate for 1 hour at room temperature with gentle mixing, the plate wells were washed, 3 times with 50 mM Tris, pH 7.5, 150 mM NaCl, 0.02% Tween-20.
In series [4] the target is MDR1 (Homo sapiens (Human), UniProt P08183). In words: in vitro. To be noted: MDCK-MDR1.
Chain of MDR1 (P08183 whole entry): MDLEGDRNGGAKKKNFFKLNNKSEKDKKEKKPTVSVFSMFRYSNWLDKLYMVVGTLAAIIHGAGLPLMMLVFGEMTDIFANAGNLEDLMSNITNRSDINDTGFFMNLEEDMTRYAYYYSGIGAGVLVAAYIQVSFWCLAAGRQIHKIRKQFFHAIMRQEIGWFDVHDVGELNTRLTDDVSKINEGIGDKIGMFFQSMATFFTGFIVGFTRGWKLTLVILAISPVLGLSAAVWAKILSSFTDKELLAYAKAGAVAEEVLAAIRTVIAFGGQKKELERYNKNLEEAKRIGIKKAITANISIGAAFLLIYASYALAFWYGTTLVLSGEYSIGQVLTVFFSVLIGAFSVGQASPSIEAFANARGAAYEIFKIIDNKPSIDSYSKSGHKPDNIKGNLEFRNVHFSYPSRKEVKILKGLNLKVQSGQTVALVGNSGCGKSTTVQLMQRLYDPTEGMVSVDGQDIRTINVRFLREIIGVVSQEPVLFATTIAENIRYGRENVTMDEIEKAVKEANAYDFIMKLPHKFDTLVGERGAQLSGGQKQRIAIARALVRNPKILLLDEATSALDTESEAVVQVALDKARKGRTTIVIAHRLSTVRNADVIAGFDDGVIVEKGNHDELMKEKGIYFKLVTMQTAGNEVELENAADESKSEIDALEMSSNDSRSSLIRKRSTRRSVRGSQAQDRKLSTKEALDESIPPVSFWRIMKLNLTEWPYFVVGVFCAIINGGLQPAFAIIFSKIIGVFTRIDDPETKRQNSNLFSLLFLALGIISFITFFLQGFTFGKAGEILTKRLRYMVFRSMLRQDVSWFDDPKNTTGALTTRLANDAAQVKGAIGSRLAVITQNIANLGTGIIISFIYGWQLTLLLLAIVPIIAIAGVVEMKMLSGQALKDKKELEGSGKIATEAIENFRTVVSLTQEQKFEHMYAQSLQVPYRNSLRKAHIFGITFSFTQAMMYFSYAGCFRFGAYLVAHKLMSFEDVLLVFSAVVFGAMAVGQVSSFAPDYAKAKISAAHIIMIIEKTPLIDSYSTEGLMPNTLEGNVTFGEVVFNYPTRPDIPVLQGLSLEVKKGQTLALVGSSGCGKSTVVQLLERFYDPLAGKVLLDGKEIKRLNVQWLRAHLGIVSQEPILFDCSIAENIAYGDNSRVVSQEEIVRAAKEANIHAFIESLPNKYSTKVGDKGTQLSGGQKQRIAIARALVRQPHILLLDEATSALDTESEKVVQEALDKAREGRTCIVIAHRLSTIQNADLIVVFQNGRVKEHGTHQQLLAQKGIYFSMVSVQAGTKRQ

In brackets after ≈: the same amount, converted by molar mass. Structures can show the parent of a compound that is named as a salt.

As for `CC(C)Oc1nc2nc([C@@]34CC[C@@](C)(C3)OC4)cn2cc1C(=O)Nc1cccn(C2CC2)c1=O` (single isomer, unassigned) [Example 12], in series [1], the kinetic solubility at 24 h came to 22.3 µg/mL (≈ 48.1 µM). In series [2], the Kpuu (unbound brain-to-plasma partition coefficient) came out at 0.33.
Take `Cc1cnc2c(NC(=O)c3cn4cc(C56COC(C)(C5)C6)nc4nc3OC(C)C)cnn2c1` [Comparator 2B, 7-isopropoxy-2-(1-methyl-2-oxabicyclo[2.1.1]hexan-4-yl)-N-(6-methylpyrazolo[1,5-a]pyrimidin-3-yl)imidazo[1,2-a]pyrimidine-6-carboxamide, reference compound]: the Kpuu (unbound brain-to-plasma partition coefficient) in series [2] was 0.3.
Take `CC(C)Oc1nc2nc(C34COC(C)(C3)C4)cn2cc1C(=O)Nc1cccn(C2CC2)c1=O` [Example 18, N-(1-cyclopropyl-2-oxo-1,2-dihydropyridin-3-yl)-7-isopropoxy-2-(1-methyl-2-oxabicyclo[2.1.1]hexan-4-yl)imidazo[1,2-a]pyrimidine-6-carboxamide]: the Kpuu (unbound brain-to-plasma partition coefficient) in series [2] is 0.7.
In the case of `CC(C)Oc1cc2nc([C@]34CC[C@](C)(C3)OC4)cn2cc1C(=O)Nc1ccnn(C2CC2)c1=O` [Example 75, N-(2-cyclopropyl-3-oxo-2,3-dihydropyridazin-4-yl)-7-isopropoxy-2-((1R,4S)-1-methyl-2-oxabicyclo[2.2.1]heptan-4-yl)imidazo[1,2-a]pyridine-6-carboxamide], the solubility (kinetic) at 24 h in series [1] came to 40.4 µg/mL (≈ 87.2 µM). The molecule also showed an IC50 in series [3] of 1.6 nM. In addition, the efflux ratio at 120 min, 1 μM in series [4] turned out to be 1.4.
In the same order, the values of `CC(C)Oc1cc2nc([C@@]34CC[C@@](C)(C3)OC4)cn2cc1C(=O)Nc1cccn(C2C[C@H]2C)c1=O` (stereo partly drawn) [Example 98, trans-7-isopropoxy-2-((1S,4R)-1-methyl-2-oxabicyclo[2.2.1]heptan-4-yl)-N-(1-(2-methylcyclopropyl)-2-oxo-1,2-dihydropyridin-3-yl)imidazo[1,2-a]pyridine-6-carboxamide] are 89.7 µg/mL (≈ 188 µM), 0.7 nM and 2.1.
In the same order, the values of `CC(Oc1cc2nc(C34COC(C)(C3)C4)cn2cc1C(=O)Nc1cccn(C2CC2)c1=O)C(F)F` [Example 102, (S)—N-(1-cyclopropyl-2-oxo-1,2-dihydropyridin-3-yl)-7-((1,1-difluoropropan-2-yl)oxy)-2-(1-methyl-2-oxabicyclo[2.1.1]hexan-4-yl)imidazo[1,2-a]pyridine-6-carboxamide] are 69.3 µg/mL (≈ 143 µM), 0.3 nM and 10.8.
In series [1], `CC12CC(c3cn4cc(C(=O)Nc5cccn(C6CC6)c5=O)c(OC5CC5)cc4n3)(CO1)C2` [Example 104, 7-cyclopropoxy-N-(1-cyclopropyl-2-oxo-1,2-dihydropyridin-3-yl)-2-(1-methyl-2-oxabicyclo[2.1.1]hexan-4-yl)imidazo[1,2-a]pyridine-6-carboxamide] gave a solubility (kinetic) at 24 h of 74.5 µg/mL (≈ 167 µM). The IC50 in series [3] came to 1.7 nM. Further, in series [4], the efflux ratio at 120 min, 1 μM was determined as 4.3.
In the same order, the values of `CC(C)Oc1cc2nc([C@@]34CC[C@@](C)(C3)OC4)cn2cc1C(=O)Nc1cccn([C@@H]2C[C@H]2F)c1=O` [Example 116, N-(1-((1R,2R)-2-fluorocyclopropyl)-2-oxo-1,2-dihydropyridin-3-yl)-7-isopropoxy-2-((1S,4R)-1-methyl-2-oxabicyclo[2.2.1]heptan-4-yl)imidazo[1,2-a]pyridine-6-carboxamide] are 55.6 µg/mL (≈ 116 µM), 0.6 nM and 5.3.
In turn, `COCC12CC(c3cn4cc(C(=O)Nc5cccn([C@H]6C[C@H]6F)c5=O)c(OC5CCC5)nc4n3)(CO1)C2` [Example 128, 7-cyclobutoxy-N-(1-((1S,2R)-2-fluorocyclopropyl)-2-oxo-1,2-dihydropyridin-3-yl)-2-(1-(methoxymethyl)-2-oxabicyclo[2.1.1]hexan-4-yl)imidazo[1,2-a]pyrimidine-6-carboxamide] had a kinetic solubility at 24 h in series [1] of 72.5 µg/mL (≈ 142 µM). In addition, the IC50 in series [3] was determined as 0.3 nM. Further, the efflux ratio at 120 min, 1 μM in series [4] amounted to 20.8.
Taken in the same sequence, the figures for `CC(C)Oc1cc2nc(C34COC(C)(C3)C4)cn2cc1C(=O)Nc1cccn([C@H]2C[C@H]2C)c1=O` [Example 134, 7-isopropoxy-2-(1-methyl-2-oxabicyclo[2.1.1]hexan-4-yl)-N-(1-((1S,2R)-2-methylcyclopropyl)-2-oxo-1,2-dihydropyridin-3-yl)imidazo[1,2-a]pyridine-6-carboxamide] were 38.6 µg/mL (≈ 83.5 µM), 0.5 nM and 4.4.
Turning to `CC(C)Oc1nc2nc(C34COC(C)(C3)C4)cn2cc1C(=O)Nc1cccn([C@H]2C[C@H]2C)c1=O` [Example 136, 7-isopropoxy-2-(1-methyl-2-oxabicyclo[2.1.1]hexan-4-yl)-N-(1-((1S,2R)-2-methylcyclopropyl)-2-oxo-1,2-dihydropyridin-3-yl)imidazo[1,2-a]pyrimidine-6-carboxamide], the Kpuu (unbound brain-to-plasma partition coefficient) in series [2] turned out to be 0.4.
As for `CC(C)Oc1cc2nc(C34COC(C)(C3)C4)cn2cc1C(=O)Nc1cccn([C@@H]2C[C@H]2C)c1=O` [Example 139, 7-isopropoxy-2-(1-methyl-2-oxabicyclo[2.1.1]hexan-4-yl)-N-(1-((1R,2R)-2-methylcyclopropyl)-2-oxo-1,2-dihydropyridin-3-yl)imidazo[1,2-a]pyridine-6-carboxamide], in series [1], the kinetic solubility at 24 h came out at 38.4 µg/mL (≈ 83 µM). This molecule also displayed an IC50 in series [3] of 0.5 nM. For the same molecule, in series [4], the efflux ratio at 120 min, 1 μM was determined as 3.
In the same order, the values of `CC(C)Oc1c(C(=O)Nc2cccn([C@H]3C[C@@H]3C)c2=O)cn2cc(C34COC(C)(C3)C4)nc2c1F` [Example 146, 8-fluoro-7-isopropoxy-2-(1-methyl-2-oxabicyclo[2.1.1]hexan-4-yl)-N-(1-((1S,2S)-2-methylcyclopropyl)-2-oxo-1,2-dihydropyridin-3-yl)imidazo[1,2-a]pyridine-6-carboxamide] are 29.7 µg/mL (≈ 61.8 µM), 0.9 nM and 1.7.
With `CC(C)Oc1nc2nc(C34COC(C)(C3)C4)cn2cc1C(=O)Nc1cccn([C@H]2C[C@H]2F)c1=O` [Example 159, N-(1-((1S,2R)-2-fluorocyclopropyl)-2-oxo-1,2-dihydropyridin-3-yl)-7-isopropoxy-2-(1-methyl-2-oxabicyclo[2.1.1]hexan-4-yl)imidazo[1,2-a]pyrimidine-6-carboxamide], the Kpuu (unbound brain-to-plasma partition coefficient) in series [2] worked out at 0.28.
In series [1], `CC(C)Oc1cc2nc([C@]34CC[C@](C)(C3)OC4)cn2cc1C(=O)Nc1cccn([C@H]2C[C@H]2F)c1=O` [Example 171, N-(1-((1S,2R)-2-fluorocyclopropyl)-2-oxo-1,2-dihydropyridin-3-yl)-7-isopropoxy-2-((1R,4S)-1-methyl-2-oxabicyclo[2.2.1]heptan-4-yl)imidazo[1,2-a]pyridine-6-carboxamide] yielded a kinetic solubility at 24 h of 47.9 µg/mL (≈ 99.7 µM). Besides, the IC50 in series [3] is 0.2 nM. Further, the efflux ratio at 120 min, 1 μM in series [4] is 9.8.
Taken in the same sequence, the figures for `CC12CC(c3cn4cc(C(=O)Nc5cccn([C@H]6C[C@H]6F)c5=O)c(OC5CC5)cc4n3)(CO1)C2` [Example 175, 7-cyclopropoxy-N-(1-((1S,2R)-2-fluorocyclopropyl)-2-oxo-1,2-dihydropyridin-3-yl)-2-(1-methyl-2-oxabicyclo[2.1.1]hexan-4-yl)imidazo[1,2-a]pyridine-6-carboxamide] were 43 µg/mL (≈ 92.6 µM), 0.2 nM and 8.9.
Take `CC(C)Oc1cc2nc([C@@]34CC[C@@](C)(C3)OC4)cn2cc1C(=O)Nc1cccn([C@H]2C[C@H]2C)c1=O` [Example 182, 7-isopropoxy-2-((1S,4R)-1-methyl-2-oxabicyclo[2.2.1]heptan-4-yl)-N-(1-((1S,2R)-2-methylcyclopropyl)-2-oxo-1,2-dihydropyridin-3-yl)imidazo[1,2-a]pyridine-6-carboxamide trifluoroacetate]: the kinetic solubility at 24 h in series [1] is 31.8 µg/mL. In addition, in series [3], the IC50 turned out to be 0.2 nM. Also, the efflux ratio at 120 min, 1 μM in series [4] amounted to 3.9.
Take `C[C@H](Oc1cc2nc(C34COC(C)(C3)C4)cn2cc1C(=O)Nc1cccn(C2C[C@H]2F)c1=O)C(F)F` (stereo partly drawn) [Example 184, 7-(((S)-1,1-difluoropropan-2-yl)oxy)-N-(1-((1S,2R)-2-fluorocyclopropyl)-2-oxo-1,2-dihydropyridin-3-yl)-2-(1-methyl-2-oxabicyclo[2.1.1]hexan-4-yl)imidazo[1,2-a]pyridine-6-carboxamide]: the solubility (kinetic) at 24 h in series [1] amounted to 73.4 µg/mL (≈ 146 µM). This molecule also showed an IC50 in series [3] of 0.2 nM. In addition, the efflux ratio at 120 min, 1 μM in series [4] came out at 19.2.
In series [1], `C[C@@H](Oc1cc2nc(C34COC(C)(C3)C4)cn2cc1C(=O)Nc1cccn(C2C[C@H]2F)c1=O)C(F)F` (stereo partly drawn) [Example 185] displayed a solubility (kinetic) at 24 h of 73.2 µg/mL (≈ 146 µM). Further, the IC50 in series [3] was found to be 0.1 nM. In addition, the efflux ratio at 120 min, 1 μM in series [4] amounted to 21.8.
In the case of `C[C@@H]1C[C@@H]1n1cccc(NC(=O)c2cn3cc(C45COC(C)(C4)C5)nc3nc2OC2CCC2)c1=O` [Example 188, 7-cyclobutoxy-2-(1-methyl-2-oxabicyclo[2.1.1]hexan-4-yl)-N-(1-((1S,2R)-2-methylcyclopropyl)-2-oxo-1,2-dihydropyridin-3-yl)imidazo[1,2-a]pyrimidine-6-carboxamide trifluoroacetate], in series [1], the kinetic solubility at 24 h was found to be 49.7 µg/mL. Further, the IC50 in series [3] turned out to be 0.8 nM. The efflux ratio at 120 min, 1 μM in series [4] is 4.4.
With `C[C@@H]1C[C@@H]1n1cccc(NC(=O)c2cn3cc(C45COC(C)(C4)C5)nc3cc2OC2CCC2)c1=O` [Example 190, 7-cyclobutoxy-2-(1-methyl-2-oxabicyclo[2.1.1]hexan-4-yl)-N-(1-((1S,2R)-2-methylcyclopropyl)-2-oxo-1,2-dihydropyridin-3-yl)imidazo[1,2-a]pyridine-6-carboxamide trifluoroacetate], in series [1], the solubility (kinetic) at 24 h was 54.2 µg/mL. Moreover, the midpoint of inhibition in series [3], the IC50, lay at 0.9 nM. Besides, the efflux ratio at 120 min, 1 μM in series [4] is 4.1.
